Laboratory results taken from the kinase profiling compilation of Christmann-Franck et al. (2016).

Experiments:
[1] = target: HIPK1 (human) (UniProt Q86Z02); assay: SelectScreen, TR FRET
[2] = target: HIPK2 (human) (UniProt Q9H2X6); assay: SelectScreen, TR FRET
[3] = target: CDK3 (human) (UniProt Q00526); assay: KINOMEscan competition binding; details: compound 10.0 µM
[4] = target: MARK4 (human) (UniProt Q96L34); assay: KINOMEscan competition binding; details: compound 10.0 µM
[5] = target: LCK (human) (UniProt P06239); assay: KINOMEscan competition binding; details: compound 10.0 µM
[6] = system: ABL1 (human), P00519 [Y253F]; assay: KINOMEscan competition binding; details: compound 10.0 µM
[7] = target: WEE2 (human) (UniProt P0C1S8); assay: KINOMEscan competition binding; details: compound 10.0 µM
[8] = target: NTRK1 (human) (UniProt P04629); assay: KINOMEscan competition binding; details: compound 10.0 µM
Chain of NTRK1 (human) (P04629 whole entry, looked up): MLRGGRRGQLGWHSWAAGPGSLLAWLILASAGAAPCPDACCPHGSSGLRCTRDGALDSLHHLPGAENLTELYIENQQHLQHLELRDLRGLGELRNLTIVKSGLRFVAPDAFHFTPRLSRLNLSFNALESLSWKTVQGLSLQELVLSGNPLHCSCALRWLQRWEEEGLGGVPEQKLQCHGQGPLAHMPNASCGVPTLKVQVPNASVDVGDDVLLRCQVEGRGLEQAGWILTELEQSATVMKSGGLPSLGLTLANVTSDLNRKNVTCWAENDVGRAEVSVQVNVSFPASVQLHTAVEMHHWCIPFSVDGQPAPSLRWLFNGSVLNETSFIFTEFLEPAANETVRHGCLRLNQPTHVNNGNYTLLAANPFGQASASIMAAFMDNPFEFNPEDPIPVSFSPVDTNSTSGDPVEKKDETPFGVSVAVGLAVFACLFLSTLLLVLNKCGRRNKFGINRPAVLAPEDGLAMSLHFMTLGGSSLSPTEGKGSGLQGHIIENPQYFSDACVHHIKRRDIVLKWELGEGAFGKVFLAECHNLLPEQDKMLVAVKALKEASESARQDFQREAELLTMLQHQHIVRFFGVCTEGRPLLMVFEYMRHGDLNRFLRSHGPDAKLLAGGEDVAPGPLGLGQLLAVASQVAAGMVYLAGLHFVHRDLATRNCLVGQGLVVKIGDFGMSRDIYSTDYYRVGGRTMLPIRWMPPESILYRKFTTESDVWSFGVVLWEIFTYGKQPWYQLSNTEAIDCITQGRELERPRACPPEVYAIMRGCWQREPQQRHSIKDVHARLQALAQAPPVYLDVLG

[9] = target: EPHB4 (human) (UniProt P54760); assay: KINOMEscan competition binding; details: compound 10.0 µM
[10] = target: PRKAA2 (human) (UniProt P54646); assay: KINOMEscan competition binding; details: compound 10.0 µM
[11] = target: ROCK2 (human) (UniProt O75116); assay: KINOMEscan competition binding; details: compound 10.0 µM
Chain of ROCK2 (human) (O75116 whole entry, looked up): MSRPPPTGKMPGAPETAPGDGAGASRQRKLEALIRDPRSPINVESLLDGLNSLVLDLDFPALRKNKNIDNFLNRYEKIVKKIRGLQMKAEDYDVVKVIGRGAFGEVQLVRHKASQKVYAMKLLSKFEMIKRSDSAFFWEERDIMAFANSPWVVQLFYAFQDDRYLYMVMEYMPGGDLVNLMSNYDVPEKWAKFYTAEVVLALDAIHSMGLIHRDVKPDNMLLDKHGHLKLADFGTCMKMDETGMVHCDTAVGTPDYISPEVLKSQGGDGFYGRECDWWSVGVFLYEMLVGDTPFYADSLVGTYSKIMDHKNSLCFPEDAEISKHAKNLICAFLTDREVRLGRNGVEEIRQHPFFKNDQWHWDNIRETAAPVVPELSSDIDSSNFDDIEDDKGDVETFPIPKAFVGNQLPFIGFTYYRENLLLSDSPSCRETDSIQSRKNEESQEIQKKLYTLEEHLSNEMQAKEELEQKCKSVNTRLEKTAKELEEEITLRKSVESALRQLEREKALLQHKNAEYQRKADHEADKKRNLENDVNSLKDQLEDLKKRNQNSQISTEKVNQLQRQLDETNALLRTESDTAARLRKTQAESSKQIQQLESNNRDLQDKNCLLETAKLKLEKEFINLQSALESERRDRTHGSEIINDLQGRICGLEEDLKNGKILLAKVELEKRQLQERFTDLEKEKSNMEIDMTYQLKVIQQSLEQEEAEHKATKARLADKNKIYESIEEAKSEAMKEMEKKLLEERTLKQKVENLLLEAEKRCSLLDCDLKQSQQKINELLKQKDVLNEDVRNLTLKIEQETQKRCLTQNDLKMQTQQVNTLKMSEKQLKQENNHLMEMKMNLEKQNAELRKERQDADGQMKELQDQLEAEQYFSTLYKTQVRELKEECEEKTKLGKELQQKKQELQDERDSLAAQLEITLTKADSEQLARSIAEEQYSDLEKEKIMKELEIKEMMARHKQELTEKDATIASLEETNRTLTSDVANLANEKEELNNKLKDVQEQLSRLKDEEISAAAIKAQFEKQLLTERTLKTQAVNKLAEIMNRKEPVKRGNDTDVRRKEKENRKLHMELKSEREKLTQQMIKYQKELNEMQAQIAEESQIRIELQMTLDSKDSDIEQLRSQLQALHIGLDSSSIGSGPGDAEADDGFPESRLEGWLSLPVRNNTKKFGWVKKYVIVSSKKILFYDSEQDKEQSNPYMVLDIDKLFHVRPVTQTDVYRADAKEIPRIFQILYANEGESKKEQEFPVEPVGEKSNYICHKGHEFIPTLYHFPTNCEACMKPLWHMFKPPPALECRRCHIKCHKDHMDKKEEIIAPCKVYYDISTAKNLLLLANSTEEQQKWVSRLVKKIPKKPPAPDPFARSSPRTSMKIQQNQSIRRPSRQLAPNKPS

[12] = target: YES1 (human) (UniProt P07947); assay: KINOMEscan competition binding; details: compound 10.0 µM
Chain of YES1 (human) (P07947 whole entry, looked up): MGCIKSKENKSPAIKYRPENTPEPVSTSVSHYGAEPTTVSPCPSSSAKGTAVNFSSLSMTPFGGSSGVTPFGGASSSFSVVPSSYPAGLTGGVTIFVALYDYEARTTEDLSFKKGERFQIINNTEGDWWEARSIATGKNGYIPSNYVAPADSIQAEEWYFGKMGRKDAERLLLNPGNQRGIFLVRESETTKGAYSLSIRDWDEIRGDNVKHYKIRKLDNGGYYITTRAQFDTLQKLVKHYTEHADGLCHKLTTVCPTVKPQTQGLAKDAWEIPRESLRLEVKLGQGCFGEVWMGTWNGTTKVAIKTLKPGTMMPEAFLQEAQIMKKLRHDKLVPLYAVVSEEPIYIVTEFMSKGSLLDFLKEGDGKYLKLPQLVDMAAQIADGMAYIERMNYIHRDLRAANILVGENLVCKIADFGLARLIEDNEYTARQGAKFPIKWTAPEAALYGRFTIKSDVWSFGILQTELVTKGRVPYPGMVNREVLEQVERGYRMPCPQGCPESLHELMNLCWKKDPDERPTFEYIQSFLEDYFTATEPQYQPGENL

[13] = target: FGFR1 (human) (UniProt P11362); assay: KINOMEscan competition binding; details: compound 10.0 µM
[14] = system: ABL1 (human), P00519 [F317I]; assay: KINOMEscan competition binding; details: compound 10.0 µM
[15] = target: CDK11B (human) (UniProt P21127); assay: KINOMEscan competition binding; details: compound 10.0 µM
Chain of CDK11B (human) (P21127 whole entry, looked up): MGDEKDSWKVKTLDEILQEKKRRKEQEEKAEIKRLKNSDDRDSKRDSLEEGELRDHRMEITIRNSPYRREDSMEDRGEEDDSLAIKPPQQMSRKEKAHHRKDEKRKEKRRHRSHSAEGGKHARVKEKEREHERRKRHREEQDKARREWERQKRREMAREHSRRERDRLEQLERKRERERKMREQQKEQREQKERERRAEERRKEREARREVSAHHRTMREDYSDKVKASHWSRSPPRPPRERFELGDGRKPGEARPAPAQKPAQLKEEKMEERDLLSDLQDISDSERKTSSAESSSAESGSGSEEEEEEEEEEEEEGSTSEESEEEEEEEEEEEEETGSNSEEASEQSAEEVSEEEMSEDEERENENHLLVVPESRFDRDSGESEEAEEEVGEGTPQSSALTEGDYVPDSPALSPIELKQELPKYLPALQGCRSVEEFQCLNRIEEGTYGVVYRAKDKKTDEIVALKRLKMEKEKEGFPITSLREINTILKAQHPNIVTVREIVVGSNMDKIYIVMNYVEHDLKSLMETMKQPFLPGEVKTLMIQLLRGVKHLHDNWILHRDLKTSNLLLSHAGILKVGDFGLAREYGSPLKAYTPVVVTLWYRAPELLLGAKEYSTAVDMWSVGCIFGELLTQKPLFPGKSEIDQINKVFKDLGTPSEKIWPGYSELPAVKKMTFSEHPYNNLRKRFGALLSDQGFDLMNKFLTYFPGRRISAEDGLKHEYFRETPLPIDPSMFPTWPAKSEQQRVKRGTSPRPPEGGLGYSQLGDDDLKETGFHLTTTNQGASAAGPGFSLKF

[16] = target: AURKC (human) (UniProt Q9UQB9); assay: SelectScreen, TR FRET
[17] = target: AURKB (human) (UniProt Q96GD4); assay: SelectScreen, TR FRET
[18] = target: PIM1 (human) (UniProt P11309); assay: SelectScreen, TR FRET
[19] = target: PIM2 (human) (UniProt Q9P1W9); assay: SelectScreen, TR FRET
[20] = target: BRAF (human) (UniProt P15056); assay: KINOMEscan competition binding; details: compound 10.0 µM
[21] = system: BRAF (human), P15056 [V600E]; assay: KINOMEscan competition binding; details: compound 10.0 µM
[22] = target: DYRK1A (human) (UniProt Q13627); assay: KINOMEscan competition binding
[23] = target: DYRK2 (human) (UniProt Q92630); assay: KINOMEscan competition binding
[24] = target: HIPK2 (human) (UniProt Q9H2X6); assay: KINOMEscan competition binding

Chain of CDK3 (human) (Q00526 whole entry, looked up): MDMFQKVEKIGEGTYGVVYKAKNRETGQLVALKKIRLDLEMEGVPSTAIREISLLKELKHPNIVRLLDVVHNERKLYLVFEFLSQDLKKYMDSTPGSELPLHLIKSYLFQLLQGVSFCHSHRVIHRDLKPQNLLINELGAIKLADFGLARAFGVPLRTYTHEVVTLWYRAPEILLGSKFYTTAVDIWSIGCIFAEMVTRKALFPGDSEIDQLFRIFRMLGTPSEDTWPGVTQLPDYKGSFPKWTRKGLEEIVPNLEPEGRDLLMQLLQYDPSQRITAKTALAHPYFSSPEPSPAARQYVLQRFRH
Chain of HIPK1 (human) (Q86Z02 whole entry, looked up): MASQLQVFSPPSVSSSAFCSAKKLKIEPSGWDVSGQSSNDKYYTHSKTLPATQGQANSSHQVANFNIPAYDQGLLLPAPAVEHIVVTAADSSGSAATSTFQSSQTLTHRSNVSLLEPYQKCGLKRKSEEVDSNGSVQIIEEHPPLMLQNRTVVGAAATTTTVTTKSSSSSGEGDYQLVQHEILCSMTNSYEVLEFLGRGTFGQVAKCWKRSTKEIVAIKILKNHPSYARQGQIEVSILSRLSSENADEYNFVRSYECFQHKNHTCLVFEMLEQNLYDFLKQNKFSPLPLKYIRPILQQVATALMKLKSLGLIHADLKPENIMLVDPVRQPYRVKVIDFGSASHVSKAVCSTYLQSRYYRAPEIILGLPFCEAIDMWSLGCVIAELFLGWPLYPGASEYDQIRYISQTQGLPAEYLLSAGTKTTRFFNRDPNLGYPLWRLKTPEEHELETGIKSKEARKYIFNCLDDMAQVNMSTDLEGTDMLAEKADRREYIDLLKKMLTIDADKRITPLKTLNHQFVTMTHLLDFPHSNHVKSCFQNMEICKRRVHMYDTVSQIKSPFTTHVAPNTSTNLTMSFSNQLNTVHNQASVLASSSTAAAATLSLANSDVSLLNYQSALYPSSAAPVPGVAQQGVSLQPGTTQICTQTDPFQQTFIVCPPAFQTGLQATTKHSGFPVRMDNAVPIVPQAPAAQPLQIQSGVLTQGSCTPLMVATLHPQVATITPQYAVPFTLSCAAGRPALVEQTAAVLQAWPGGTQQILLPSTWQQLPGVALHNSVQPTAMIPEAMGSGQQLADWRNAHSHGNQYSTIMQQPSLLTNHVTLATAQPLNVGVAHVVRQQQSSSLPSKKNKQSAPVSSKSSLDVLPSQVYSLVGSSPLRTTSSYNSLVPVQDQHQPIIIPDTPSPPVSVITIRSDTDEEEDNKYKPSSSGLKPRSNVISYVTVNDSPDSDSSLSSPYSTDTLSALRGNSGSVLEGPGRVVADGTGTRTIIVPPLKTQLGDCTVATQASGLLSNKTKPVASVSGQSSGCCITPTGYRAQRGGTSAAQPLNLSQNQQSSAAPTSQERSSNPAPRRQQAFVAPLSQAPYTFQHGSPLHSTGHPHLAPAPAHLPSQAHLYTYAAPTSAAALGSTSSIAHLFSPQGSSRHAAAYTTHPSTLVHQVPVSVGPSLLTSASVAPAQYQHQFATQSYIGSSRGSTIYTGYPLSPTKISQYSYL

SMILES	kinase still bound, per cent of control [3] [%]	kinase still bound, per cent of control [4] [%]	kinase still bound, per cent of control [5] [%]	kinase still bound, per cent of control [6] [%]	kinase still bound, per cent of control [7] [%]	kinase still bound, per cent of control [8] [%]	kinase still bound, per cent of control [9] [%]	kinase still bound, per cent of control [10] [%]	kinase still bound, per cent of control [11] [%]	kinase still bound, per cent of control [12] [%]	kinase still bound, per cent of control [13] [%]	kinase still bound, per cent of control [14] [%]	kinase still bound, per cent of control [15] [%]	other results
CS(=O)(=O)Nc1ccc(-c2cc(/C=C3\SC(=N)NC3=O)c[nH]c2=O)cc1	–	–	–	–	–	–	–	–	–	–	–	–	–	IC50 [1]: 1160 nM; IC50 [2]: 300 nM
COc1cc(N2CCC(O)CC2)ccc1Nc1ncc2c(n1)N1CCc3cccc(c31)C(=O)N2C	97	86	100	100	87	82	100	100	86	99	95	88	100	–
Nc1cccc(-c2cc(/C=C3\SC(=O)NC3=O)c[nH]c2=O)c1	–	–	–	–	–	–	–	–	–	–	–	–	–	IC50 [1]: 244 nM; IC50 [2]: 166 nM
CN1C(=O)c2ccccc2N(C)c2nc(NS(=O)(=O)c3ccc(N)cc3)ncc21	100	93	100	100	100	77	100	96	100	100	100	100	96	–
CS(=O)(=O)Nc1ccc(-c2cncc(/C=C3\SC(=N)NC3=O)c2)cc1	–	–	–	–	–	–	–	–	–	–	–	–	–	kinase still bound, per cent of control [20]: 32%; kinase still bound, per cent of control [21]: 34%
N=C1NC(=O)/C(=C/c2c[nH]c(=O)c(-c3ccc(N4CCNCC4)nc3)c2)S1	–	–	–	–	–	–	–	–	–	–	–	–	–	IC50 [1]: 507 nM; IC50 [2]: 289 nM
COc1cc(N2CCN(C)CC2)ccc1Nc1ncc2c(n1)Nc1ccccc1NC2=O	85	84	28	26	93	1.6	100	84	48	68	80	65	100	–
O=C1NC(=O)/C(=C/c2c[nH]c(=O)c(-c3ccc(N4CCNCC4)nc3)c2)S1	100	100	100	95	100	78	100	100	56	97	100	100	100	Kd [22]: 8.8 nM; Kd [23]: 250 nM; Kd [24]: 9.5 nM; IC50 [1]: 136 nM; IC50 [2]: 74 nM
COc1cc(N2CCN(C)CC2)ccc1Nc1ncc2c(n1)N(C)c1ccccc1N(C)C2=O	96	63	100	100	100	76	100	94	50	100	100	67	100	–
COc1cc(N2CCN(C)CC2)ccc1Nc1ncc2c(n1)N(C)c1sccc1C(=O)N2C	100	59	100	99	94	60	100	94	57	87	100	6.6	85	–
CN1CCN(c2ccc(C(=O)Nc3ncc4c(n3)N(C)c3ccccc3C(=O)N4C)cc2)CC1	100	91	100	100	100	82	97	100	100	96	100	96	100	–
CN1C(=O)c2ccccc2N(C)c2nc(Nc3ccc(N4CCC(O)CC4)cc3)ncc21	100	66	50	1.9	70	64	100	31	86	38	61	28	100	kinase still bound, per cent of control [20]: 94%; kinase still bound, per cent of control [21]: 100%
N=C1NC(=O)/C(=C/c2ccc(-c3csc4ccccc34)o2)S1	–	–	–	–	–	–	–	–	–	–	–	–	–	IC50 [18]: 3270 nM; IC50 [19]: 628 nM
O=C1NC(=S)S/C1=C\c1ccc(-c2cncc3ccccc23)o1	–	–	–	–	–	–	–	–	–	–	–	–	–	IC50 [18]: 284 nM; IC50 [19]: 92 nM
CSC1=NC(=O)/C(=C/c2c[nH]c(=O)c(-c3ccc(NS(C)(=O)=O)cc3)c2)S1	–	–	–	–	–	–	–	–	–	–	–	–	–	IC50 [1]: 1960 nM; IC50 [2]: 618 nM

Further lines, with some results ahead:

kinase still bound, per cent of control [3] [%]	kinase still bound, per cent of control [4] [%]	kinase still bound, per cent of control [5] [%]	kinase still bound, per cent of control [6] [%]	kinase still bound, per cent of control [7] [%]	kinase still bound, per cent of control [8] [%]	kinase still bound, per cent of control [9] [%]	kinase still bound, per cent of control [10] [%]	kinase still bound, per cent of control [11] [%]	kinase still bound, per cent of control [12] [%]	kinase still bound, per cent of control [13] [%]	kinase still bound, per cent of control [14] [%]	kinase still bound, per cent of control [15] [%]	SMILES	other results
–	–	–	–	–	–	–	33	–	–	–	–	–	N=C1NC(=O)/C(=C/c2ccc(-c3cncc4ccccc34)o2)S1	IC50 [16]: 154 nM; IC50 [17]: 29 nM
6.5	–	–	–	–	–	–	–	–	–	–	–	–	N=C1NC(=O)/C(=C/c2ccc(-c3ccc(F)cc3O)o2)S1	IC50 [18]: 110 nM; IC50 [19]: 96 nM
24	–	–	–	–	–	–	–	–	–	–	–	–	N=C1NC(=O)/C(=C/c2ccc(-c3ccccc3O)o2)S1	IC50 [18]: 94 nM; IC50 [19]: 114 nM
30	–	–	–	–	–	–	–	–	–	–	–	–	N=C1NC(=O)/C(=C/c2ccc(-c3ccc(C(N)=O)cc3O)o2)S1	IC50 [18]: 32 nM; IC50 [19]: 57 nM
